Measurements reported in US8178658B2 (Dow AgroSciences, LLC, priority 2008, dated 2012).
Read-outs that look alike come from different tables or passages of the source.

How the values were obtained:
[1] = system: beet armyworm (BAW; Spodoptera exigua: Lepidoptera); assay: 96-well microtiter plate-based high throughput (HTS) diet bioassay on beet armyworm (BAW HTS); format: in vivo; settings: for pest or weed control at 12 µg/well, 12 µg/well: Spodoptera exigua, 144 h, read-out: BAW HTS
Protocol: (§1) Bioassays on beet armyworm (BAW; Spodoptera exigua: Lepidoptera) were conducted using either a 96-well microtiter plate-based high throughput (HTS) bioassay or a 128-well diet tray assay. The HTS assay is a based on a modification of Lewer et al. J. Nat. Prod. 2006, 69, 1506. BAW eggs of were placed on top of artificial diet (100 μl) in each well of 96-well microtiter plate. The diet was pretreated with test compounds (12 μg dissolved in 30 μL of DMSO-acetone-water mixture) layered on top of the diet using a liquid handling system and then allowed to dry for several hours. Infested plates were then covered with a layer of sterile cotton batting and the plate lid, and then held in the dark at 29° C. Mortality was recoded at 6 d post-treatment. Each plate had six replicates. The percent mortality was calculated from the average of the six replicates. In the case of the 128-well diet assay, three to five second instar BAW larvae were placed in each well (3 mL) of the diet tray that had been previously filled with 1 mL of artificial diet to which 50 μg/cm^2 of the test compound (dissolved in 50 μL of 90:10 acetone-water mixture) had been applied (to each of eight wells) and then allowed to dry. Trays were covered with a clear self-adhesive cover, and held at 25° C., 14:10 light-dark for six days. Percent mortality was recorded for the larvae in each well; activity in the eight wells was then averaged. In Table 7, under the BAW HTS or BAW 50 heading, an “A” means that the compound was tested and at least 50 percent mortality was observed whereas, “B” means that either (1) the compound was tested and less than 50 percent mortality was observed or (2) the compound was not tested.

[2] = system: beet armyworm (BAW; Spodoptera exigua: Lepidoptera); assay: 128-well diet tray assay on beet armyworm (BAW 50); format: in vivo; settings: for pest or weed control at 50 µg/cm2, 50 µg/cm2: Spodoptera exigua, 144 h, read-out: BAW 50 ug/cm2
Protocol: as §1

[3] = 96-well microtiter plate HTS diet assay, 12 μg test compound per well, BAW eggs, mortality at 6 d post-treatment, mortality class
[4] = 128-well diet tray assay, 50 μg/cm^2 of test compound on diet, second instar BAW larvae, mortality class
[5] = 96-well HTS diet assay, BAW eggs, 12 μg test compound per well, mortality at 6 d post-treatment, mortality class
[6] = 96-well HTS diet bioassay, BAW eggs, 12 μg test compound per well, mortality at 6 d post-treatment, mortality class
[7] = 128-well diet tray assay, second instar BAW larvae, 50 μg/cm^2 of test compound on diet, mortality class

| SMILES | BAW HTS [1, 3] | pest or weed control at 12 µg/well, 12 µg/well [1] [%] | BAW 50 ug/cm2 [2, 4] | pest or weed control at 50 µg/cm2, 50 µg/cm2 [2] [%] | BAW HTS [1, 5] | BAW HTS [1, 6] | pest or weed control at 12 µg/well, 12 µg/well [1, 5] [%] | pest or weed control at 50 µg/cm2, 50 µg/cm2 [2, 7] [%] | BAW 50 ug/cm2 [2, 7] |
| --- | --- | --- | --- | --- | --- | --- | --- | --- | --- |
| CCO[C@@H]1[C@@H](OC)[C@H](C)O[C@@H](OC(=O)N(C)c2ccc(-c3ncn(-c4ccc(OC(F)(F)F)cc4)n3)cc2)[C@@H]1OC [Compound 250, methyl {4-[1-(4-trifluoromethoxyphenyl)-1H-[1,2,4]triazol-3-yl]-phenyl}-carbamic acid (2S,3R,4R,5S,6S)-4-ethoxy-3,5-dimethoxy-6-methyl-tetrahydropyran-2-yl ester] | B (either (1) the compound was tested and less than 50 percent mortality was observed or (2) the compound was not tested) | < 50 | A (the compound was tested and at least 50 percent mortality was observed) | > 50 | – | – | – | – | – |
| CCOC1C(OC)C(C)OC(ON=Cc2ccc(-c3ncc(-c4ccccc4C)cn3)cc2)C1OC (stereo not drawn) [Compound 152] | B (either (1) the compound was tested and less than 50 percent mortality was observed or (2) the compound was not tested) | – | A (the compound was tested and at least 50 percent mortality was observed) | – | B (either (1) the compound was tested and less than 50 percent mortality was observed or (2) the compound was not tested) | – | – | – | – |
| CCCCOC1C(OC)C(C)OC(ON=Cc2ccc(-c3ncn(-c4ccc(OC(F)(F)C(F)(F)F)cc4)n3)cc2)C1OC (stereo not drawn) [Compound 109] | A (the compound was tested and at least 50 percent mortality was observed) | – | A (the compound was tested and at least 50 percent mortality was observed) | – | – | A (the compound was tested and at least 50 percent mortality was observed) | – | – | – |
| COC1C(C)OC(ON=Cc2ccc(-c3cn(-c4ccc(OC(F)(F)F)cc4)cn3)cc2)C(OC)C1OC (stereo not drawn) [Compound 30] | A (the compound was tested and at least 50 percent mortality was observed) | – | A (the compound was tested and at least 50 percent mortality was observed) | – | – | A (the compound was tested and at least 50 percent mortality was observed) | – | – | – |
| CCOC1C(OC)C(C)OC(ON=Cc2ccc(C3=NC(c4ccc(OC(F)(F)F)cc4)CO3)cc2)C1OC (stereo not drawn) [Compound 68] | B (either (1) the compound was tested and less than 50 percent mortality was observed or (2) the compound was not tested) | – | A (the compound was tested and at least 50 percent mortality was observed) | – | – | B (either (1) the compound was tested and less than 50 percent mortality was observed or (2) the compound was not tested) | – | – | – |
| CCCOC1C(OC)C(C)OC(ON=Cc2ccc(-n3cnc(-c4ccc(C(F)(F)F)cc4)n3)cc2)C1OC (stereo not drawn) [Compound 74] | B (either (1) the compound was tested and less than 50 percent mortality was observed or (2) the compound was not tested) | – | A (the compound was tested and at least 50 percent mortality was observed) | – | – | B (either (1) the compound was tested and less than 50 percent mortality was observed or (2) the compound was not tested) | – | – | – |
| CCOC1C(OC)C(C)OC(ON=Cc2ccc(-c3ncn(-c4ccc(C(F)(F)F)cn4)n3)cc2)C1OC (stereo not drawn) [Compound 116] | B (either (1) the compound was tested and less than 50 percent mortality was observed or (2) the compound was not tested) | – | A (the compound was tested and at least 50 percent mortality was observed) | – | – | B (either (1) the compound was tested and less than 50 percent mortality was observed or (2) the compound was not tested) | – | – | – |
| COC1CC(OC(=O)Nc2ccc(-c3ncn(-c4ccc(OC(F)(F)C(F)(F)F)cc4)n3)cc2)OC(C)C1O (mixture of isomers) [Compound 244] | B (either (1) the compound was tested and less than 50 percent mortality was observed or (2) the compound was not tested) | – | A (the compound was tested and at least 50 percent mortality was observed) | – | B (either (1) the compound was tested and less than 50 percent mortality was observed or (2) the compound was not tested) | – | – | – | – |
| CCO[C@@H]1[C@@H](OCC)[C@H](C)O[C@@H](OC(=O)Nc2ccc(-c3ncn(-c4ccc(OC(F)(F)C(F)(F)F)cc4)n3)cc2)[C@@H]1OCC [Compound 206] | A (the compound was tested and at least 50 percent mortality was observed) | – | A (the compound was tested and at least 50 percent mortality was observed) | – | A (the compound was tested and at least 50 percent mortality was observed) | – | – | – | – |
| CCO[C@@H]1[C@@H](OC)[C@H](C)O[C@@H](OC(=O)Nc2ccc(-c3ncn(-c4ccc(OC(F)(F)C(F)(F)F)cc4)n3)cc2Br)[C@@H]1OC [Compound 224] | B (either (1) the compound was tested and less than 50 percent mortality was observed or (2) the compound was not tested) | – | A (the compound was tested and at least 50 percent mortality was observed) | – | B (either (1) the compound was tested and less than 50 percent mortality was observed or (2) the compound was not tested) | – | – | – | – |
| CO[C@@H]1[C@@H](OC)[C@H](C)O[C@@H](ONC(=O)c2ccc(-c3cn(-c4ccc(OC(F)(F)F)cc4)cn3)cc2)[C@@H]1OC [Compound 171, 4-[1-(4-trifluoromethoxyphenyl)-1H-imidazol-4-yl]-N-((2S,3R,4R,5S,6S)-3,4,5-trimethoxy-6-methyl-tetrahydropyran-2-yloxy)-benzamide] | A (the compound was tested and at least 50 percent mortality was observed) | – | A (the compound was tested and at least 50 percent mortality was observed) | – | – | – | > 50 | > 50 | – |
| COC1C(C)OC(ON=Cc2ccc(-n3ccc(-c4ccccn4)n3)cc2)C(OC)C1OC (stereo not drawn) [Compound 3] | – | – | – | – | A (the compound was tested and at least 50 percent mortality was observed) | A (the compound was tested and at least 50 percent mortality was observed) | – | – | B (either (1) the compound was tested and less than 50 percent mortality was observed or (2) the compound was not tested) |
| CCO[C@@H]1[C@@H](OC)[C@H](C)O[C@@H](OC(=O)Nc2ccc(-c3ncn(-c4ccc(OC(F)(F)C(F)(F)F)cc4)n3)cc2)[C@@H]1OC [Compound 201, {4-[1-(4-pentafluoroethyloxyphenyl)-1H-[1,2,4]triazol-3-yl]-phenyl}-carbamic acid (2S,3R,4R,5S,6S)-4-ethoxy-3,5-dimethoxy-6-methyl-tetrahydropyran-2-yl ester] | A (the compound was tested and at least 50 percent mortality was observed) | > 50 | A (the compound was tested and at least 50 percent mortality was observed) | > 50 | – | – | – | – | – |
| CCOC1C(OC)C(C)OC(ON=Cc2cccc(-c3ncc(-c4cccc(OC(F)(F)F)c4)cn3)c2)C1OC (stereo not drawn) [Compound 149] | B (either (1) the compound was tested and less than 50 percent mortality was observed or (2) the compound was not tested) | – | A (the compound was tested and at least 50 percent mortality was observed) | – | B (either (1) the compound was tested and less than 50 percent mortality was observed or (2) the compound was not tested) | – | – | – | – |
